This is an account of results in US6821941B2, “Tablet of compacted particulated cleaning composition” (ISP Investments Inc., priority 2002, dated 2004).

For data set [1] the following is noted: grams of solid to form a saturated solution in 100 g of water at 20° C.; cited from earlier work.
Data set [2] can be described thus: Disintegration rate of dishwashing detergent tablet vs. additive ingredient. Particulars: additive in standard dishwashing detergent formulation; based on a tablet of 20 g; FIGURE. It counts as physicochemical. An excerpt: The FIGURE is a bar graph of Disintegration Rate (g/min) vs. Additive Ingredient present in a standard dishwashing detergent formulation.
The dishwashing disintegrant tablets of the invention herein have a disintegration rate of at least 40 g/min (based on a tablet of 20 g).

`NC(N)=O` [Urea]: in data set [1], the “Water Solubility (g/100 g)” value was greater than 100 g/100 g. The Disintegration rate entry in data set [2] was “minimal”.
